# Entries after “also recorded” stand apart in the source; their conditions may differ.
# Tests used:
# [1] = test system: C57B1/6 heart allografts in CBA recipients; assay: Heterotopic heart transplantation, allograft survival; format: in vivo, mouse; conditions: control 7.8±1.1
# Protocol: FIG. 2 is a graph showing the prolongation of heart allograft survival following metalloprotoporphyrin therapy. CBA recipients of C57B1/6 heart allografts were either untreated or treated as follows: Zn-protoporphyrin group (n=4); Zn-protoporphyrin was administered at 10 mg/kg/day on day −1 before transplantation and on days 1–9 post transplantation. Co-protoporphyrin group (n=4); Co-protoporphyrin was administered at 20 mg/kg/day on days 0–5 post-transplantation; Zn-protoporphyrin pretreatment group (n=3); heart donors were treated one day before transplantation with 50 mg/kg Zn-protoporphyrin.
# Heterotopic Heart Transplantation: Abdominal heterotopic heart transplantation was performed as previously described by Ono and Lindsey, J. Thorac. Cardiovasc. Surg. 7:225–229 (1969) using […] donors and CBA recipients. Metalloporphyrin was administered intraperitoneally using various protocols. Heart allograft survival was monitored daily by direct palpation, and rejection was defined as termination of palpable cardiac contractility. Results are expressed as percentage graft survival at a given postoperative period. Statistical analysis was performed with the Mann-Whitney test.
# HO-1 [2] = assay: Western analysis of HO-1 expression in the ex vivo I/R injury model; design: species or system rat; conditions: at completion of 2-hour perfusion period; densitometer; untreated 0.11 AU
# Protocol: (§1) Western blots: Protein was extracted from liver tissue samples with PBSTDS buffer (50 mM Tris, 150 mM NaCl, 0.1% SDS, 1% sodium deoxycholate, and 1% Triton X-100, pH 7.2). Proteins (30 μg/sample) in SDS-loading buffer (50 mM Tris, pH 7.6, 10% glycerol, 1% SDS) were subjected to 12% SDS-PAGE and transferred to nitrocellulose membrane (Bio-Rad Laboratories Inc., Hercules, Calif., USA). The gel was then stained with Coomassie blue to document equal protein loading. The membrane was blocked with 3% dry milk and 0.1% Tween-20 (Amersham, Arlington Heights, Ill., USA) in PBS and incubated with rabbit anti-rat HO-1 polyclonal Ab (Sangstat Corp., San Francisco, Calif., USA). The filters were washed and then incubated with horseradish peroxidase donkey anti-rabbit Ab (Amersham Life Sciences, Arlington Heights, Ill., USA). Relative quantities of HO-1 protein were determined using a densitometer (Kodak Digital Science 1D Analysis Software, Rochester, N.Y., USA) and results were expressed in absorbance units (AU).
# Western blots were performed as described in Example 3.
# EL4 cells = assay: Cytotoxic T-cell activity, four hour chromium release assay; format: cell-based, mouse; conditions: for target cell lysis: at about 10 μg/ml, cytotoxic T-cells, E:T 20:1, four hour incubation; for chromium release from target cells: at concentrations higher than about 10 μg/ml, compared with spontaneous release without compound
# Text: Cytotoxic T-cell Activity: To assay the effect of metalloprotoporphyrins on cytotoxic T-cell activity, CBA to B6 effectors were generated following a five day culture of 3×10^6 CBA spleen cells with 3×10^6 mitomycin-treated B6 spleen cells in wells of a 24-well plate (Nunclone, Delta, Nunc, Denmark) in R-10 medium. Effector cells were then harvested and washed. (H2^b), a mouse lymphoma induced in C57BL/6N was used as target cells. EL4 cells were routinely subcultured once every three days. They were then collected, washed, and labeled with 0.1 mCi of sodium chromate-51 in 200 μl for one hour at 37° C. Effector (E) and target (t) cells were added into V-shaped tissue culture plates (Nunc, Denmark) at E:T of 20:1. Metalloprotoporphyrins were diluted to the working concentrations with PBS and added at the beginning of the four hour incubation period. For the determination of maximal release, 1% triton X-100 was added to separate wells. Plates were centrifuged for three minutes to increase cellular contact before the four hour incubation period. After incubation 75 μl supernatant from each well was collected and the amount of^51Cr released was counted using a TopCount scintillation counter. The degree of cell lysis was calculated using the formula below: […]
# [3] = test system: fatty livers from obese Zucker rats; assay: Ex vivo steatotic rat liver cold ischemia model followed by reperfusion; format: in vivo; conditions: for bile production / portal blood flow: 2-hour reperfusion after 6 hours cold ischemia; for bile production / portal blood flow / I/R-induced hepatocyte injury measured by sGOT release: compared with untreated controls; for I/R-induced hepatocyte injury measured by sGOT release: 2-hour reperfusion
# Protocol: Animals, metalloporphyrins, and adenovirus constructs are described in Example 3. Ex vivo cold ischemia model: Genetically obese Zucker rats underwent ether anesthesia and systemic heparinization. […] Control livers from untreated obese Zucker rats were stored for 6 hours at 4° C. in UW solution (n=6). There were 4 treatment groups. Group 1 animals received CoPP, the HO-1 inducer (5 mg/kg intraperitoneally) 24 hours before liver harvest (n=6). Group 2 rats were infused with Ad-HO-1 or Ad-β Gal (2.4×10^9 plaque-forming units (pfu) […]) 24 to 48 hours before the procurement (n=4–10). Group 3 donors were treated with Ad-HO-1 (2.4×10^9 pfu intravenously) at day-2, followed 1 day later by infusion of ZnPP (20 mg/kg intraperitoneally), the HO-1 inhibitor (n=4). Group 4 rats received ZnPP alone (20 mg/kg intraperitoneally) at 24 hours before harvest (n=4). All livers were procured at day 0, stored for 6 hours at 4° C. in UW solution, and then perfused on an isolated perfusion rat liver apparatus, as described. The Zucker livers were perfused ex vivo for 2 hours while temperature, pH, and inflow pressure were kept constant. Portal vein blood flow and pressure were recorded every 15 minutes, whereas bile output was monitored every 30 minutes. Portal vein blood flow was adjusted to maintain portal pressures of 13 to 18 cm H2O. Blood was collected at 30-minute intervals and serum glutamic-oxaloacetic trans-aminase (sGOT) levels were measured using an autoanalyzer from ANTECH Diagnostics (Irvine, Calif., USA). Following 2 hours of perfusion, a portion of the liver was snap-frozen for mRNA extraction and Western blot analysis of HO-1 expression; the remaining tissue samples were fixed in formalin for hematoxylin and eosin (H&E) staining.
# [4] = test system: fatty livers from obese Zucker rats; assay: Liver histology in the ex vivo cold ischemia model, Banff's criteria; design: species or system rat; conditions: after 2 hours perfusion; graded 1 to 4; untreated 3.0±0.63
# Text: Histology and immunohistochemistry: Liver specimens were fixed in a 10% buffered formalin solution and embedded in paraffin. Sections were made at 4 μm and stained with H&E. The histologic severity of I/R injury in the ex vivo perfusion model was graded using International Banff Criteria. Using these criteria, lobular disarray and ballooning changes are graded from 1 to 4, where no change is given a score of 1 and severe disarray or ballooning changes is given a score of 4.
# HO-1 [5] = assay: Western analysis of HO-1 expression in the OLT model; format: in vivo, rat; conditions: day 1, 7, 14 and 100 after transplant; densitometer; untreated 0.09–0.85 AU
# Protocol: as §1
# [6] = test system: fatty liver isografts from obese Zucker donors in lean Zucker recipients; assay: Syngeneic orthotopic liver transplant (OLT) model, survival and sGOT; format: in vivo, rat
# Protocol: Syngeneic Orthotopic Liver Transplant (OLT) model: Syngeneic liver transplants were performed using fatty livers that were harvested from obese Zucker rats and stored for 4 hours at 4° C. in University of Wisconsin (UW) solution before being transplanted into lean Zucker recipients. OLTs were performed with revascularization without hepatic artery reconstruction. There were 2 treatment groups. In the first group, obese Zucker rats (n=10) received CoPP (5 mg/kg intraperitoneally) 24 hours before the procurement. Group 2 donors (n=11) were treated with Ad-HO-1 (2.4×10^9 pfu intravenously) 24 hours before harvest. OLT recipients were followed for survival and serum glutamic-oxaloacetic trans-aminase (sGOT) levels. Separate groups of rats (n=2/group) were sacrificed at 1, 7, 14, and 100 days after OLT, and liver samples were collected for H&E/immunohistology staining and Western blot analysis.
# liver isografts [7] = assay: OLT immunohistochemistry for mononuclear cell (MNC) infiltration; format: in vivo, rat
# Protocol: OLTs were examined serially by immunohistochemistry for mononuclear cell (MNC) infiltration. Briefly, liver tissue was embedded in Tissue Tek OCT compound (Miles Inc., Elkhart, Ind., USA), snap frozen in liquid nitrogen, and stored at −70° C. Cryostat sections (5 μm) were fixed in acetone, and then endogenous peroxidase activity was inhibited with 0.3% H2O2 in PBS. Normal heat-inactivated donkey serum (10%) was used for blocking. Appropriate primary mouse Ab against rat T cells (R73) and monocytes/macrophages (ED1) (Harlan Bioproducts for Science, Indianapolis, Ind., USA) were added at optimal dilutions. Bound primary Ab was detected using biotinylated donkey anti-mouse IgG and streptavidin peroxidase-conjugated complexes (DAKO Corp., Carpinteria, Calif., USA). The control sections were performed by replacing the primary Ab with either dilution buffer or normal mouse serum. The peroxidase reaction was developed with 3,3-diaminobenzidine tetrahydrochloride (Sigma Chemical Co., St. Louis, Mo., USA). The sections were evaluated blindly by counting the labeled cells in triplicates in 10 high-power fields.
# liver isografts [8] = assay: OLT liver histology, modified Suzuki's criteria; format: in vivo, rat; conditions: day 1 after transplant; graded 0 to 4; control 3.33±0.58
# Text: Histology and immunohistochemistry: Liver specimens were fixed in a 10% buffered formalin solution and embedded in paraffin. Sections were made at 4 μm and stained with H&E. The previously published Suzuki's criteria (Suzuki et al., Transplantation 55:1265–1272 (1993)), […] were modified to evaluate the histologic severity of I/R injury in the OLT model. In this classification sinusoidal congestion, hepatocyte necrosis, and ballooning degeneration are graded from 0 to 4. No necrosis, congestion or centrilobular ballooning is given a score of 0, whereas severe congestion and ballooning degeneration as well as greater than 60% lobular necrosis is given a value of 4.
# HO-1 [9] = assay: Rat sandwich ELISA of HO-1 protein in liver; format: in vivo; conditions: 5 mg/kg intraperitoneally
# Protocol: To test that stress-induced upregulation of HO-1 reduces I/R insult in steatotic rat livers, we have chosen 2 distinct HO-1-inducing approaches. First, donor rats were pretreated with CoPP (5 mg/kg intraperitoneally), a regimen that increases HO-1 protein levels in rat livers by 250% in a rat sandwich ELISA. Second, because infusion of CoPP in high doses may modulate other heme enzymes such as nitric oxide synthase (NOS) and guanylate cyclase, we have also used Ad-based gene delivery to provide “proof of principle” and to selectively upregulate HO-1 expression in prospective liver donors. Western blot analysis confirmed increased HO-1 protein expression in the ex vivo I/R model using Ad-HO-1-transduced rat steatotic livers.
# [10] = recipients treated i.p., Zn 10 mg/kg/day day -1 and days 1-9, Co 20 mg/kg/day days 0-5
SMILES,heart allograft survival (mean survival time) ([1]; heart donors pre-treated one day before transplantation (50 mg/kg)),"heart allograft survival (mean survival time) [1, 10]",HO-1 expression (HO-1 [2]),target cell lysis (EL4 cells),chromium release from target cells (EL4 cells),bile production [3],portal blood flow [3],I/R-induced hepatocyte injury measured by sGOT release [3],Banff's score [4],HO-1 expression (HO-1 [5]),"sGOT levels ([6]; day 1 post transplant, control 2695)","sGOT levels ([6]; day 7 post transplant, control 1570)","sGOT levels ([6]; day 14 post transplant, control 460)",recipients still alive at well over 100 days after transplant ([6]; lean Zucker rats engrafted with livers from treated obese Zucker donors),"intragraft T cells (liver isografts [7]; day 1, labeled cells counted in 10 high-power fields, control 9±3)","intragraft monocytes/macrophages (liver isografts [7]; day 1, labeled cells counted in 10 high-power fields, control 136±31)",hepatocyte architecture and MNC infiltrate of long-term liver grafts (liver isografts [7]; grafts harvested at day 100),Suzuki score (liver isografts [8]),increase of HO-1 protein levels in rat livers (HO-1 [9]),"sGOT concentrations ([3]; at 60 minutes of reperfusion, untreated controls 102±8.23)"
"C=CC1=C(C)c2cc3[n-]c(cc4nc(cc5[n-]c(cc1n2)c(C)c5C=C)C(C)=C4CCC(=O)O)c(CCC(=O)O)c3C.[Zn+2] [ZnPP, Zinc-protoporphyrin]",10.3±1.5 days,12.0±2.4 days,0.12 AU,0%,lower than the spontaneous release,diminished,diminished,augmented hepatocyte injury comparable with otherwise untreated fatty controls,2.86±0.12,,,,,,,,,,,
"C=CC1=C(C)c2cc3[n-]c(cc4nc(cc5[n-]c(cc1n2)c(C)c5CCC(=O)[O-])C(CCC(=O)[O-])=C4C)c(C)c3C=C.[Co+2].[H+].[H+] [CoPP, cobalt-protoporphyrin]",,10.5±0.6 days,2.46 AU,0%,lower than the spontaneous release,significantly increased; also recorded: significantly higher,significantly improved,markedly reduced,1.21±0.39,1.21–2.14 AU,1838 IU/L,477 IU/L,198 IU/L,8 out of 10,2±1,71±12,good preservation of hepatocyte architecture and only mild MNC infiltrate,1.33±0.70,250%,53.3±8.23 IU/L
